Data as given in patent US12630498B2 (Genzyme Corporation, priority 2019, dated 2026).

Target: T1, human Cystic Fibrosis Transmembrane Conductance Regulator (CFTR) harboring the ΔF508 mutation (Homo sapiens, UniProt P13569, DEL508-508)
T1 construct: expressed in transfected cells; host or cells: H441 carcinoma line (G418-selected)
Test: H441 cell ΔF508-CFTR-HRP cell surface assay (Emax and EC50)
Type: cell-based
Conditions: for Emax: NCI-H441, NA = Not active
Description: Example 315: H441 Cell Emax and EC50 Two cell lines were used, the H441 carcinoma line and the CFHBE41o- (41o-) human bronchial epithelial line. Both cell lines expressed human Cystic Fibrosis Transmembrane Conductance Regulator (CFTR) harboring the ΔF508 mutation and with an in-frame fusion in CFTR extracellular loop 4 of Horse Radish Peroxidase (HRP) under control of the CMV promoter. In the presence of the HRP tag, ΔF508-CFTR transported to the cell surface was detectable upon addition of an HRP substrate (Luminata Forte). Both cell types were cultivated at 37° C. with CO2. […] For both cell types, the medium was changed every other day unless the culture was at low % confluence. Cells were used for the assays at 75% confluence. To a polypropylene (PP) 384-well plate, 15 pls DMSO was added to all wells in columns 1-22 and 24 (low Control). 15 μls of 260 μM VX809 (Lumacaftor), Selleckchem […], was added to column 23 wells (high Control). 15 pls of 10 mM test compound or VX809 (control) were added to wells of row A. Serial dilutions of Row A compound were performed 2×15 pls in rows A through 0 (15-point). A PP, 384-well plate containing the appropriate cell culture medium was prepared for each assay plate with 100 pls per well. For the doxycycline-induced 41o-cells, doxycycline for both the assay plate and the medium dilution plate was added at 0.0005 mg/ml to the medium. Both cell lines were plated for the assay at 30 pls per 384-well at 3.4×10 e^5 cells per ml ( 10K cells/well). H441 cells were plated on opaque, white, Corning plate 3704. 41o-cells were plated on collagen-coated opaque, white, Corning plate 356665. For 41o-cells, doxycycline was added to the medium. Using FX (Beckman) protocol, 10 pls diluted compound or medium was added per well to the Assay Plate as: 2 pls DMSO Dilution plate well was diluted in 100 pls of the Medium Dilution Plate well, mixed, and 10 pls was transferred to the Assay Plate. The final assay dilution series was 24.5, 12.3, 6.1, 3.1, 1.5, 0.8, 0.4, 0.2, 0.1, 0.05, 0.02, 0.01, 0.006, 0.003, 0.001 and 0 μM. The 41o-assay plates were incubated at 37° C. w/CO2, the H441 assay plates were incubated at 27° C. w/CO2, each overnight for two nights. After being brought to room temperature, the assay plate liquid was removed. 30 uls of Luminata Forte (Millipore ELLUF0100) was added per well and incubated at room temperature for 10 min. The plates were then read on a Topcount, protocol LumiMatti (CPS, luminescence). The data was analyzed for % of maximum, maximum VX809 signal, and EC50 using Pearl and SPEED tools.

T1 sequence (P13569 with tags, fused parts or gaps DEL508-508): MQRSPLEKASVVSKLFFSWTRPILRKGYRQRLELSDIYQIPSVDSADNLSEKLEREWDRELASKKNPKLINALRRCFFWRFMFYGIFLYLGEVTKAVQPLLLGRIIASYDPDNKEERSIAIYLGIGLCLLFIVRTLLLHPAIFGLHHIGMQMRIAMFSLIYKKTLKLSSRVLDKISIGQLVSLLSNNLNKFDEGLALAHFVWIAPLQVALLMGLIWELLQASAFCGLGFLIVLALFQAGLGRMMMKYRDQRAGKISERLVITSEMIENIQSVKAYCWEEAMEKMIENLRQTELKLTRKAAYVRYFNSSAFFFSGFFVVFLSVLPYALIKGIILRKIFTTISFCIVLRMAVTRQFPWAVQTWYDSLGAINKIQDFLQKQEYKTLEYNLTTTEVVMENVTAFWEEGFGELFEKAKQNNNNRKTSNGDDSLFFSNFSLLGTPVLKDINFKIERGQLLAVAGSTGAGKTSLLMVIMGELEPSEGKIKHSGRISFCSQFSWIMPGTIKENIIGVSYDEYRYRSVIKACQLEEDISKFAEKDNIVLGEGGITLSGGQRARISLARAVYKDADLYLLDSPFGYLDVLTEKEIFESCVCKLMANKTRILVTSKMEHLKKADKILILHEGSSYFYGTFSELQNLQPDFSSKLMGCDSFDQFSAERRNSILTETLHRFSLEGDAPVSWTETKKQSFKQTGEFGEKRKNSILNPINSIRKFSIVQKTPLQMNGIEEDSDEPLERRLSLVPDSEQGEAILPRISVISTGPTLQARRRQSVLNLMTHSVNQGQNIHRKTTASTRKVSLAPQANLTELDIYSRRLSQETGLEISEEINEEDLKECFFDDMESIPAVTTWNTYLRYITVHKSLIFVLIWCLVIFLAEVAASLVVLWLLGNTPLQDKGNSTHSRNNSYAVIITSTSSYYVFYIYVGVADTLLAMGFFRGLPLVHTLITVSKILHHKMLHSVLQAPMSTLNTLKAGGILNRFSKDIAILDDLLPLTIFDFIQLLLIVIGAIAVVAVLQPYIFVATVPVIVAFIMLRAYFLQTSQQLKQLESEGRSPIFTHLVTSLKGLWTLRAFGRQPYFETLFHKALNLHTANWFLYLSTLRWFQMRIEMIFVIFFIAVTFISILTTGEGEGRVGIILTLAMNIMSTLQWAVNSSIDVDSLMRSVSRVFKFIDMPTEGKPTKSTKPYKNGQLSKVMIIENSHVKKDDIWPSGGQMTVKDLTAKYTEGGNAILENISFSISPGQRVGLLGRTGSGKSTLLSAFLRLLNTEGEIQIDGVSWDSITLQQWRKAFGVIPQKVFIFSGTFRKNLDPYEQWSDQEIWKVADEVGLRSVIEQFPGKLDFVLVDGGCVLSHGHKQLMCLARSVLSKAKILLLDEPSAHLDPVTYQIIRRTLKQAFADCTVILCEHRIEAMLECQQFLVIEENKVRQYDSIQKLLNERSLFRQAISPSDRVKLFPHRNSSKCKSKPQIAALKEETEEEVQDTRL

EC50 [µM] | Emax [%] | SMILES
1.6 | 53 | CN(C)c1ccc2c(OCc3ccc(C(F)(F)F)cc3)c(C(=O)N[C@H](C(=O)O)C(C)(C)C)ccc2c1 [compound 85, (S)-2-(6-(dimethylamino)-1-((4-(trifluoromethyl)benzyl)oxy)-2-naphthamido)-3,3-dimethylbutanoic Acid]
1.1 | 80.8 | COc1ccc2c(OCc3ccc(C(F)(F)F)cc3)c(C(=O)N[C@H](C(=O)O)C(C)(C)C)ccc2c1 [Example 38, (S)-2-(6-methoxy-1-((4-(trifluoromethyl)benzyl)oxy)-2-naphthamido)-3,3-dimethylbutanoic Acid]
10 | 70.7 | CC(C)(C)C[C@H](NC(=O)c1ccc2ccccc2c1OC[C@H]1CC[C@@H](C(F)(F)F)CC1)C(=O)O [Example 180, (S)-4,4-dimethyl-2-(1-(((1s,4R)-4-(trifluoromethyl)cyclohexyl)methoxy)-2-naphthamido)pentanoic Acid]
3.5 | 26.9 | CC(C)(C)[C@H](NC(=O)c1ccc2ccccc2c1OCc1ccc(Br)cc1)C(=O)O [Example 46, (S)-2-(1-((4-bromobenzyl)oxy)-2-naphthamido)-3,3-dimethylbutanoic Acid]
3.3 | 47.2 | COc1ccc2c(OCc3ccc(C(F)(F)F)cc3)c(C(=O)N[C@H](C(=O)O)C3CCCC3)ccc2c1 [Example 160, (S)-2-cyclopentyl-2-(6-methoxy-1-((4-(trifluoromethyl)benzyl)oxy)-2-naphthamido)acetic Acid]
16.4 | 22.4 | CC(C)(O)[C@H](NC(=O)c1ccc2ccccc2c1OCc1ccc(C(F)(F)F)cc1)C(=O)O [Example 138, (S)-3-hydroxy-3-methyl-2-(1-((4-(trifluoromethyl)benzyl)oxy)-2-naphthamido)butanoic Acid]
2.4 | 51.9 | CC(C)(c1ccccc1)[C@H](NC(=O)c1ccc2cc(F)ccc2c1OCC1CCC(F)(F)CC1)C(=O)O [Example 7, (S)-2-(1-((4,4-difluorocyclohexyl)methoxy)-6-fluoro-2-naphthamido)-3-methyl-3-phenylbutanoic Acid]
3.2 | 47.7 | COc1ccc2c(OCc3ccc(C(F)(F)F)cc3)c(C(=O)N[C@@H](CC(C)(C)C)C(=O)O)ccc2c1 [Example 161, (S)-2-(6-methoxy-1-((4-(trifluoromethyl)benzyl)oxy)-2-naphthamido)-4,4-dimethylpentanoic Acid]
0.2 | 225 | CCCC(C)(CC)[C@H](NC(=O)c1ccc2ccc(F)cc2c1OCc1ccc(OC(F)(F)F)cc1)C(=O)O (stereo partly drawn) [compound 290, (2S)-3-ethyl-2-(7-fluoro-1-((4-(trifluoromethoxy)benzyl)oxy)-2-naphthamido)-3-methylhexanoic Acid]
3.1 | 8.5 | CC(C)(C)[C@H](NC(=O)c1ccc2ccccc2c1OCc1ccncc1)C(=O)O [Example 232, (2S)-3,3-dimethyl-2-[[1-(4-pyridylmethoxy)naphthalene-2-carbonyl]amino]butanoic Acid]
0.2 | 219 | CC(C)(C)[C@H](NC(=O)c1ccc2ccc(C(F)(F)F)cc2c1OCc1ccc(OC(F)(F)F)cc1)C(=O)O [compound 292, (S)-3,3-dimethyl-2-(1-((4-(trifluoromethoxy)benzyl)oxy)-7-(trifluoromethyl)-2-naphthamido)butanoic Acid]
4.8 | 151 | CC(C)(C)[C@H](NC(=O)c1ccc2ccccc2c1OCc1ccc(C(F)(F)F)cn1)C(=O)O [Example 2, (S)-3,3-dimethyl-2-(1-((5-(trifluoromethyl)pyridin-2-yl)methoxy)-2-naphthamido)butanoic Acid]
6.7 | 79.1 | COC(=O)[C@H](Cc1ccccc1)NC(=O)c1ccc2ccccc2c1OCc1ccc(Cl)c(Cl)c1 [Example 101, Methyl (1-((3,4-dichlorobenzyl)oxy)-2-naphthoyl)-L-phenylalaninate]
15.4 | 60.7 | CC1(C(NC(=O)c2ccc3ccccc3c2OC[C@H]2CC[C@@H](C(F)(F)F)CC2)C(=O)O)CCCCC1 (stereo partly shown) [Example 39, 2-(1-methylcyclohexyl)-2-(1-(((1s,4s)-4-(trifluoromethyl)cyclohexyl)methoxy)-2-naphthamido)acetic Acid]
1.4 | 58.9 | CCC(C)(C)[C@H](NC(=O)c1ccc2cc(OC)ccc2c1OCc1ccc(C(F)(F)F)cc1)C(=O)O [Example 83, (S)-2-(6-methoxy-1-((4-(trifluoromethyl)benzyl)oxy)-2-naphthamido)-3,3-dimethylpentanoic Acid]
5.7 | 89.9 | CC(OCc1ccccc1)[C@H](NC(=O)c1ccc2cc(F)ccc2c1OCc1nc2ccccc2s1)C(=O)O (stereo in doubt) [Example 215, N-(1-(benzo[d]thiazol-2-ylmethoxy)-6-fluoro-2-naphthoyl)-O-benzyl-L-allothreonine]
1.5 | 44.3 | CCC(C)(C)[C@H](NC(=O)c1ccc2cc(OC)ccc2c1OCc1ccc(SC(F)(F)F)cc1)C(=O)O [Example 32, (S)-2-(6-methoxy-1-((4-((trifluoromethyl)thio)benzyl)oxy)-2-naphthamido)-3,3-dimethylpentanoic Acid]
0.2 | 3.7 | O=C(N[C@@H](Cc1ccccc1)C(=O)O)c1ccc2ccccc2c1OCc1ccc2c(c1)OCO2 [Example 121, (1-(benzo[d][1,3]dioxol-5-ylmethoxy)-2-naphthoyl)-L-phenylalanine]
1.4 | 47.6 | O=C(N[C@H](Cc1ccccc1)C(=O)O)c1ccc2ccccc2c1OCc1ccc(C(F)(F)F)cc1 [Example 89, (1-((4-(trifluoromethyl)benzyl)oxy)-2-naphthoyl)-D-phenylalanine]
2.8 | 71 | COC(C)(C)[C@H](NC(=O)c1ccc2cc(F)ccc2c1OCc1ccc(SC(F)(F)F)cc1)C(=O)O [Example 118, (S)-2-(6-fluoro-1-((4-((trifluoromethyl)thio)benzyl)oxy)-2-naphthamido)-3-methoxy-3-methylbutanoic Acid]
– | 18.8 | NC(N)=Nc1ccc(C[C@@H](NC(=O)c2ccc3ccccc3c2OCc2ccc(C(F)(F)F)cc2)C(=O)O)cc1 [Example 105, (R)-3-(4-((diaminomethylene)amino)phenyl)-2-(1-((4-(trifluoromethyl)benzyl)oxy)-2-naphthamido)propanoic Acid]
– | 6.8 | O=C(N[C@@H](Cc1ccc(C(F)(F)F)cc1)C(=O)O)c1ccc2cc(F)ccc2c1OCC1CCCCC1 [Example 204, (S)-2-(1-(cyclohexylmethoxy)-6-fluoro-2-naphthamido)-3-(4-(trifluoromethyl)phenyl)propanoic Acid]
4.5 | 140 | C[C@@H](OCc1ccccc1)C(NC(=O)c1ccc2ccccc2c1OCc1ccc(C(F)(F)F)cc1)C(=O)O (stereo partly drawn) [Example 144, (3R)-3-(benzyloxy)-2-(1-((4-(trifluoromethyl)benzyl)oxy)-2-naphthamido)butanoic Acid]
1.5 | 33.5 | C=C(C)C1CC=C(COc2c(C(=O)N[C@H](C(=O)O)C(C)(C)C)ccc3ccccc23)CC1 (stereo partly drawn) [Example 49, (2S)-3,3-dimethyl-2-(1-((4-(prop-1-en-2-yl)cyclohex-1-en-1-yl)methoxy)-2-naphthamido)butanoic Acid]
1.3 | 10.5 | CC(Oc1c(C(=O)N[C@@H](Cc2ccccc2)C(=O)O)ccc2ccccc12)c1ccc(C(F)(F)F)cc1 (stereo partly drawn) [Example 124, (1-(1-(4-(trifluoromethyl)phenyl)ethoxy)-2-naphthoyl)-L-phenylalanine]
1.6 | 47 | CC(C)(C)C[C@H](NC(=O)c1ccc2cc(F)ccc2c1OCc1ccc(SC(F)(F)F)cc1)C(=O)O [Example 117, (S)-2-(6-fluoro-1-((4-((trifluoromethyl)thio)benzyl)oxy)-2-naphthamido)-4,4-dimethylpentanoic Acid]
3.7 | 58.2 | O=C(N[C@H](C(=O)O)C1CCCC1)c1ccc2cc(F)ccc2c1OCc1ccc(S(F)(F)(F)(F)F)cc1 [Example 113, (S)-2-cyclopentyl-2-(6-fluoro-1-((4-(pentafluoro-16-sulfanyl)benzyl)oxy)-2-naphthamido)acetic Acid]
